The results in this text go back to paper PMC8043206 (ACS Pharmacology & Translational Science, 2021).

In this test the test system is SARS-CoV-2-S pseudotyped particles. Format: cell-based. The settings on record: Calu-3 cells.
`C=Cc1cc(C(=O)Nc2ccc(C(=N)N)cc2)c(-c2ccc(C(=O)NCC3CC3)nc2C(=O)O)cc1OC` [NCGC00522636, Avoralstat]: the “Activity on viral entry in PP entry assay (in words)” value is “comparable inhibition activity to camostat”. The value for `COC(=O)[C@H](Cc1cccc(C(=N)N)c1)[C@@H](C)NC(=O)c1ccc(-c2cc[n+]([O-])cc2)cc1` [NCGC00378763, Otamixaban] was “efficient activity”; that for `CCOC(=O)c1ccc(OC(=O)CCCCCNC(=N)N)cc1` [NCGC00025297, Gabexate] was “did not exhibit an activity”; that for `CN(C)C(=O)COC(=O)Cc1ccc(OC(=O)c2ccc(NC(=N)N)cc2)cc1` [NCGC00167526, Camostat] was “high potency and efficacy”. In the case of `N=C(N)c1ccc2cc(OC(=O)c3ccc(N=C(N)N)cc3)ccc2c1` [NCGC00160398, Nafamostat], the “Activity on viral entry in PP entry assay (in words)” value was “high potency and efficacy”.
